# Data taken from the OPERA property sets (Mansouri et al. 2018).
# Conditions: not given
Compound,ready biodegradability,log10 vapour pressure (mmHg),boiling point [°C],melting point [°C],log10 Koc (L/kg),log10 Henry constant (atm·m³/mol),log10 Koa
Nc1ccc(/C=C/c2ccc(N)cc2S(=O)(=O)O)c(S(=O)(=O)O)c1,not readily biodegradable,–,–,–,–,–,–
CCCCCCCCCCCI,–,-2.35,–,–,–,–,–
CCOC(=O)CCC=O,–,–,162,–,–,–,–
CC(C)c1cccc(C(C)C)c1O,not readily biodegradable,–,256,18,–,–,–
FC(F)(F)C(F)(F)C(F)(F)I,–,–,41.2,-95,–,–,–
CCCC(C)(C)c1ccccc1,–,–,206,–,–,–,–
C#CC(C)(C)NC(=O)c1cc(Cl)cc(Cl)c1,–,-6.36,–,155,2.31,–,–
C=CC(OC(C)=O)OC(C)=O,readily biodegradable,–,180,-37.6,–,–,–
C=C1CCC2CC1C2(C)C (stereo not given),–,0.467,166,-61.2,–,–,–
O=[N+]([O-])c1ccc2ncccc2c1,–,–,–,154,–,–,–
CN(C)c1ccc(C(=O)c2ccc(N(C)C)cc2)cc1,not readily biodegradable,–,–,179,2.21,–,–
Cc1ccc(O)cc1O,–,–,268,106,–,–,–
C[C@@H]1CCCC[C@@H]1C (racemic),–,–,–,-70,–,–,–
CCOc1cc(C=O)ccc1O,readily biodegradable,-4.98,294,77.5,–,–,–
CCNc1nc(NC(C)C)nc(OC)n1,–,-5.54,–,–,2.64,–,–
O=C(O)C(F)(F)C(F)(F)C(F)(F)C(F)(F)C(F)(F)C(F)(F)C(F)(F)F,not readily biodegradable,-0.28,189,55,–,–,–
CC1Cc2ccccc2O1 (stereo not given),–,–,198,–,–,–,–
C=C=C(C)CC,–,–,70,–,–,–,–
C=CCCCCCCCCCO,–,–,250,-2,–,–,–
CCC[C@H]1CCCCN1,–,–,166,–,–,–,–
CN1CCC(CN2c3ccccc3Sc3ccccc32)C1 (stereo not given),–,–,–,87.5,–,–,–
OC[C@H]1O[C@@H](n2cnc3cncnc32)[C@H](O)[C@@H]1O,–,–,–,181,–,–,–

Compound,ready biodegradability,log10 vapour pressure (mmHg),boiling point [°C],melting point [°C],log10 Koc (L/kg),log10 Henry constant (atm·m³/mol),log10 Koa
CO/C=C(/C(=O)OC)c1ccccc1Oc1cc(Oc2ccccc2C#N)ncn1,–,-12.1,–,116,–,–,–
C=CCC(C)CCC (stereo not given),–,–,113,–,–,–,–
CCCCCCCCC=O,–,-0.432,191,–,–,-3.13,–
c1ccc(Cn2ccnc2)cc1,–,–,310,69,–,–,–
CC(C)CI,–,1.19,121,-93,–,–,–
CC(C)=CCC[C@@H](C)[C@H]1CC[C@H]2[C@@H]3CC=C4C[C@@H](O)CC[C@]4(C)[C@H]3CC[C@]12C,–,–,–,122,–,–,–
CCCCCCCCCCCCCCCCCCc1ccccc1,–,–,408,29,–,–,–
Clc1cc(Cl)c2cccc(Cl)c2c1,–,–,–,–,–,–,7.32
CCC(C)(C)C(=O)Cl,–,–,132,–,–,–,–
COc1nc(Cl)c(Cl)cc1Cl,–,–,–,–,2.96,–,–
O=Cc1ccc(Br)cc1,–,–,–,67,–,–,–
c1cc2c(cn1)CCCC2,–,–,218,146,–,–,–
O=C(O)Cc1ccc(Br)cc1,–,–,–,116,–,–,–
O=CC=CC=Cc1ccccc1,–,–,–,42.5,–,–,–
CCO[Si](C)(C)C,–,2.06,76,–,–,–,–
CCC(=NO)C(C)=NO,–,–,–,172,–,–,–
CCN(CC)C(N)=O,–,–,–,75,–,–,–
CN(C)C=Nc1c(I)cc(I)c(CCC(=O)O)c1I,–,–,–,168,–,–,–
CCN1CCCC(N)C1 (stereo not given),–,–,155,–,–,–,–
CCC[Si](Cl)(Cl)Cl,–,1.46,124,–,–,–,–
O=Cc1ccccc1Br,–,–,230,21.5,–,–,–
Cl[C@H]1[C@H](Cl)[C@@H](Cl)[C@@H](Cl)[C@H](Cl)[C@H]1Cl (racemic),–,–,–,–,3.17,-5.5,8.29

Compound,ready biodegradability,log10 vapour pressure (mmHg),boiling point [°C],melting point [°C],log10 Koc (L/kg),log10 Henry constant (atm·m³/mol),log10 Koa
CN(C)O,–,1.33,–,108,–,–,–
CC1=CCC2CC1C2(C)C (stereo not given),readily biodegradable,0.677,–,–,–,-0.873,–
COC(=O)C1(S(=O)(=O)c2ccc(Br)cc2)CCCCC1,–,–,–,112,–,–,–
Cc1cccs1,–,1.4,113,-63.4,–,-2.62,–
CC1CCc2ccccc2C1 (stereo not given),–,–,221,-43.1,–,–,–
C=CCOc1nc(OCC=C)nc(OCC=C)n1,–,–,–,27,–,–,–
O=CC1CC=CCC1 (stereo not given),–,–,105,2,–,–,–
CC(=O)Nc1c(C)cccc1C,–,–,–,183,–,–,–
O=C(O)c1ccc2cc(C(=O)O)ccc2c1,not readily biodegradable,–,–,–,–,–,–
S=C(S)NCCNC(=S)S,not readily biodegradable,–,–,–,–,–,–
Brc1ccc(Oc2ccccc2)cc1Br,–,–,–,–,–,–,8.55
CCCCCCCC/C=C\CCCCCCCCOC(=O)CCCCC(=O)OCCCCCCCC/C=C\CCCCCCCC,readily biodegradable,–,–,–,–,–,–
OCC(F)(F)F,–,1.85,74,-43.5,–,-4.76,–
O=C1C(CCS(=O)c2ccccc2)C(=O)N(c2ccccc2)N1c1ccccc1 (stereo not given),–,–,–,136,–,–,–
c1ccc2cc3cc4cc5ccccc5cc4cc3cc2c1,not readily biodegradable,–,–,257,–,–,–
CC1(C)[C@H](C(=O)O[C@H](C#N)c2cccc(Oc3ccccc3)c2)[C@@H]1/C=C\C(=O)OC(C(F)(F)F)C(F)(F)F,–,-9.48,–,81.5,–,–,–
COc1cccc(OC)c1C#N,–,–,310,119,–,–,–
Nc1cccc(C(F)(F)F)c1,–,–,187,5.5,2.36,–,–
CC(=O)Oc1cc(C(F)(F)F)ccc1C(=O)O,–,–,–,121,–,–,–
CCC(O)C(=O)O (stereo not given),–,–,–,44.2,–,–,–
CCCC(=O)C1=C(O)C(C)(C)C(O)=C(Cc2c(O)c(C)c(O)c(C(=O)CCC)c2O)C1=O,–,–,–,156,–,–,–
CC(C)NC(=N)NC(=N)Nc1ccc(Cl)cc1,–,–,–,129,–,–,–

Compound,ready biodegradability,log10 vapour pressure (mmHg),boiling point [°C],melting point [°C],log10 Koc (L/kg),log10 Henry constant (atm·m³/mol),log10 Koa
CCCCCOC(=O)CCCC,–,–,204,-78.8,–,–,–
CC(Cl)CCCl (stereo not given),–,–,134,–,–,–,–
CCCCCCCCCCCCCCCCCCN(C)C,–,–,–,22.9,–,–,–
CC1(C)C(O)=CC(=O)C=C1O,–,–,–,214,–,–,–
FC(F)(F)C(F)(F)C(F)(F)C(F)(F)C(F)(F)C(F)(F)C(F)(F)F,–,1.88,82.5,-78,–,–,–
CCCCOC(=O)c1ccc(C(=O)OCCCC)c(C(=O)OCCCC)c1,readily biodegradable,–,–,–,–,–,–
Oc1ccccc1S,–,–,217,5.5,–,–,–
CCSCc1ccccc1OC(=O)NC,–,-5.15,–,33.4,–,–,–
CCOc1cc(Cl)c(N)c(Cl)c1,–,–,275,46,–,–,–
O=C1CNC(=O)N1,readily biodegradable,–,–,220,–,–,–
CC(C)C(=O)OCCc1ccccc1,–,–,250,–,–,–,–
CC(C)(C)OC=O,–,–,82.5,–,–,-3.16,–
CCCC(C)CO (stereo not given),–,0.283,149,–,–,–,–
C=CCCCCO,readily biodegradable,–,–,–,–,–,–
O=C(O)c1ccnc(C(=O)O)c1C(=O)O,–,–,–,250,–,–,–
C#CC(=O)O,–,–,–,9,–,–,–
CCCCCCN(CCCCCC)CCCCCC,–,–,262,–,–,–,–
NC(=O)NNc1ccccc1,–,–,–,172,–,–,–
CC(C)c1ccc(NC(=O)N(C)C)cc1,–,-7.61,–,158,–,–,–
C=CCC(C)(O)CC=C,–,–,158,–,–,–,–
FC(F)(F)C(=NOCC1OCCO1)c1ccc(Cl)cc1,–,-3.55,–,–,–,–,–

# Same assay, conditions: fish
Compound,log10 BCF,log10 biotransformation half-life (days)
CN(C)c1ccc(C(=O)c2ccc(N(C)C)cc2)cc1,1.45,-0.77
Cl[C@H]1[C@H](Cl)[C@@H](Cl)[C@@H](Cl)[C@H](Cl)[C@H]1Cl (racemic),3.04,–
O=C(O)c1ccc2cc(C(=O)O)ccc2c1,0.81,–
